This is an account of results in PMC6981117, “Redox-coupled proton pumping drives carbon concentration in the photosynthetic complex I” (Nature Communications, 2020).

In this test the target is T1, NDH-1MS (NDH-1_3), photosynthetic complex I; NdhF3 subunit (Thermosynechococcus vestitus, UniProt Q8DKF5).
T1 construct: native complex from T. elongatus thylakoid membranes, C-terminal TwinStrep tag on CupS; NdhV not resolved; with CO2 hydration protein CupA; CO2 uptake protein CupS; NAD(P)H-quinone oxidoreductase chain 4-3; NAD(P)H-quinone oxidoreductase subunit 1; NAD(P)H-quinone oxidoreductase subunit 2; NAD(P)H-quinone oxidoreductase subunit 3; NAD(P)H-quinone oxidoreductase subunit 4L; NAD(P)H-quinone oxidoreductase subunit 6; NAD(P)H-quinone oxidoreductase subunit L; NAD(P)H-quinone oxidoreductase subunit S; NAD(P)H-quinone oxidoreductase subunit H; NAD(P)H-quinone oxidoreductase subunit I; NAD(P)H-quinone oxidoreductase subunit J; NAD(P)H-quinone oxidoreductase subunit K; NAD(P)H-quinone oxidoreductase subunit M; NAD(P)H-quinone oxidoreductase subunit N; NAD(P)H-quinone oxidoreductase subunit O
T1 sequence (Q8DKF5 1-611): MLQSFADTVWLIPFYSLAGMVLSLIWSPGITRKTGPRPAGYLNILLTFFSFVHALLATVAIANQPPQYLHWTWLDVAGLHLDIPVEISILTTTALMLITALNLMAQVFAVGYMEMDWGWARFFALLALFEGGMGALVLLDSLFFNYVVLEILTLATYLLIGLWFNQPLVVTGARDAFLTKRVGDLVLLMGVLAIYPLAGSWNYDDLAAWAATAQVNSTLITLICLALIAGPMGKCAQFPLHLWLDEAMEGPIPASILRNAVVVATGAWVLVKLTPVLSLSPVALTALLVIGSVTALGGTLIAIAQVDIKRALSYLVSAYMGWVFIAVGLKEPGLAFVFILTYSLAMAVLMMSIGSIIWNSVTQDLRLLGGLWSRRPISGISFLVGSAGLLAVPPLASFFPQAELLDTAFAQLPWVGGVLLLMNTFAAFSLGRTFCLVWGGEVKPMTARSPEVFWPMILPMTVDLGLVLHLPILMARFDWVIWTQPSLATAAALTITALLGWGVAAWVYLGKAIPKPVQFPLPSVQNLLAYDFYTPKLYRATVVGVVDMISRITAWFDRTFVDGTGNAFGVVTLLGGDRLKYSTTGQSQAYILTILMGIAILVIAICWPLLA
Nature of the test: cryo-EM structure, […] Å. In kind it is binding. The following applies: co-purified; motif with chlorophyll a in NdhF3.

For `CC1=C(/C=C/C(C)=C/C=C/C(C)=C/C=C/C=C(C)/C=C/C=C(C)/C=C/C2=C(C)CCCC2(C)C)C(C)(C)CCC1` [β-carotene], the “cryo-EM structure, 3.2 Å” value is “NdhF3 binds a chlorophyll a/β-carotene motif that connects via His469 of NdhF3”.
